# Assay results from US20120178786A9, “Use of tetramic acid derivatives for controlling pests by drenching, drip application, or dip application” (priority 2006, published 2012).
# What was measured:
# Type in all cases: in vivo
# Aphis craccivora = experiment: Example 3: drench of violet plants, Henderson-Tilton efficacy against nymphs; conditions: 12 mg active substance/1 potting compost, 240 SC
# Experimental: Violet plants cv. “Ladies delight” (approximate height 15 cm) in 4-inch pots which had been infected with Aphis craccivora two weeks before the treatment are drenched, in four replications, with an active substance solution containing the active substance I-4 (cis isomer, formulation: 240 SC) and, by way of comparison, with the commercial standard imidacloprid (240 SC) at the application rate stated. The greenhouse temperature is 27-33° C. The test is evaluated 7, 14, 22 and 35 days after the treatment by determining the activity against nymphs on the leaves with the aid of the Henderson-Tilton method.
# Thrips palmi = experiment: Example 7: drench of cucumber plots, Abbott efficacy; conditions: 20 mg active substance/plant, two applications at 10-day interval, I-4 240 SC, imidacloprid 100 SL
# Experimental: Plots approximately 5 m^2 in size and containing cucumber plants are drenched, in three replications, against Thrips palmi with an active substance solution containing the active substance I-4 (cis isomer, formulation: 240 SC) and, by way of comparison, with the standard imidacloprid (100 SL) at the application rate stated, corresponding to an approximate water application rate of 300 l/ha. Two applications are effected at a 10-day interval. The test is evaluated in each case 9 days after the first treatment and 7 and 13 days after the second treatment by determining the efficacy with the aid of Abbott's formula.
# [1] = system: Bemisia argentifolii (BEMIAR); experiment: Example 8: drench of tropical sage plants, Henderson-Tilton efficacy against nymphs; conditions: 12 mg active substance/1 potting compost, 240 SC
# Experimental: Tropical sage plants cv. “scarlet sage” (approximate height 29 cm) in 6-inch pots and infested with Bemisia argentifolii (BEMIAR) are drenched, in three replications, with an active substance solution containing the active substance I-4 (cis isomer, formulation: 240 SC) and, by way of comparison, with the commercial standard imidacloprid (240 SC) at the application rate stated. The greenhouse temperature is 27-33° C. The test is evaluated 9, 13, 20, 34 and 41 days after the treatment by determining the activity against nymphs on the leaves with the aid of the Henderson-Tilton method.
# [2] = system: Trialeurodes vaporarium (TRIAVA); experiment: Example 9: drench of courgette plots, Abbott efficacy; conditions: four treatments of 10 mg active substance/plant at 10-day intervals, I-4 240 SC, imidacloprid 200 SL
# Experimental: Plots approximately 12 m^2 in size and containing courgette plants (47 days after sowing) are drenched, in three replications, against Trialeurodes vaporarium (TRIAVA) with 100 ml of an active substance solution per plant, containing the active substance I-4 (cis isomer, formulation: 240 SC) and, by way of comparison, with the standard imidacloprid (200 SL) at the application rate stated. Four applications are effected at 10-day intervals. The test is evaluated 21, 31, 38 and 45 days after the 1st treatment by determining the efficacy with the aid of Abbott's formula.
# [3] = system: Trialeurodes vaporarium (TRIAVA); experiment: Example 10: drip application to tomato plants on rock wool, Abbott efficacy; conditions: three treatments
# Experimental: In each case 12 tomato plants cv. “Briljant” on rock wool are treated, in four replications, with a drip application against Trialeurodes vaporarium (TRIAVA) with an active substance solution containing the active substance I-4 (cis isomer, formulation: 100 OD) in comparison with the commercial standard imidacloprid (70 WG) at the application rate stated. The greenhouse temperature is 20° C. Three treatments are carried out at intervals of seven and fourteen days. The test is evaluated 14, 21, 28, 36 and 43 days after the 1st treatment by determining the efficacy with the aid of Abbott's formula.
# Coccus viridis = experiment: Example 11: drench of gardenia plants, Henderson-Tilton efficacy against nymphs; conditions: 240 SC
# Experimental: Gardenia plants cv. […] The greenhouse temperature is 27° C. The test is evaluated 7, 15, 21 and 35 days after the treatment by determining the activity against nymphs on the leaves with the aid of the Henderson-Tilton method.
# [4] = system: Madeira mealybug (Phenacoccus madeirensis); experiment: Example 13: drench of Coleus plants, Abbott efficacy; conditions: 12 mg active substance/1 potting compost, 240 SC
# Experimental: Coleus plants (approximate height 29 cm) in 6-inch pots which have been infected approximately 4 weeks before the beginning of the experiment with Madeira mealybug (Phenacoccus madeirensis) are drenched, in three replications, with an active substance solution containing the active substance I-4 (cis isomer, formulation: 240 SC) and, by way of comparison, with the commercial standard imidacloprid (240 SC) at the application rate stated. The greenhouse temperature is 29° C. The test is evaluated 7, 14, 21 and 28 days after the treatment by determining the efficacy with the aid of Abbott's formula.
# Bemisia sp. = experiment: Example 15: drench of bell pepper plots, kill rate of larvae on the leaves
# Experimental: Plots approximately 2×5 m in size which contain bell pepper plants are treated, in three replications, against Bemisia sp. The active substance example (I-4) cis isomer (240 SC) is drenched in an active substance solution at the application rate stated. The water application rate is 700 l/ha. Three treatments are carried out at intervals of 7 and 14 days. The test is evaluated in each case 7, 14, 21 and 28 days after the 3rd treatment by scoring the kill rate of the larvae on the leaves.
SMILES,Henderson-Tilton efficacy (%) against Aphis craccivora (Aphis craccivora; 7 d after treatment) [%],Henderson-Tilton efficacy (%) against Aphis craccivora (Aphis craccivora; 14 d after treatment) [%],Henderson-Tilton efficacy (%) against Aphis craccivora (Aphis craccivora; 22 d after treatment) [%],Henderson-Tilton efficacy (%) against Aphis craccivora (Aphis craccivora; 35 d after treatment) [%],Abbott efficacy (%) against THRIPL (Thrips palmi; 7 d after 2nd treatm.) [%],Abbott efficacy (%) against THRIPL (Thrips palmi; 9 d after 1st treatm.) [%],Abbott efficacy (%) against THRIPL (Thrips palmi; 13 d after 2nd treatm.) [%],Henderson-Tilton efficacy (%) against Bemisia argentifolii ([1]; 9 d after treatment) [%],Henderson-Tilton efficacy (%) against Bemisia argentifolii ([1]; 13 d after treatment) [%],Henderson-Tilton efficacy (%) against Bemisia argentifolii ([1]; 20 d after treatment) [%],Henderson-Tilton efficacy (%) against Bemisia argentifolii ([1]; 34 d after treatment) [%],Henderson-Tilton efficacy (%) against Bemisia argentifolii ([1]; 41 d after treatment) [%],Abbott efficacy (%) against TRIAVA ([2]; 21 d after 1st treatment) [%],Abbott efficacy (%) against TRIAVA ([2]; 31 d after 1st treatment) [%],Abbott efficacy (%) against TRIAVA ([2]; 38 d after 1st treatment) [%],Abbott efficacy (%) against TRIAVA ([2]; 45 d after 1st treatment) [%],Abbott efficacy (%) against Phenacoccus madeirensis ([4]; 7 d after treatment) [%],Abbott efficacy (%) against Phenacoccus madeirensis ([4]; 14 d after treatment) [%],Abbott efficacy (%) against Phenacoccus madeirensis ([4]; 21 d after treatment) [%],Abbott efficacy (%) against Phenacoccus madeirensis ([4]; 28 d after treatment) [%],further results
"O=[N+]([O-])NC1=NCCN1Cc1ccc(Cl)nc1 [Imidacloprid, imidacloprid, reference compound]",100,94,100,100,68.8,73.7,44.0,94,100,95,94,100,88.1,74.0,77.2,63.7,92,83,30,44,"Abbott efficacy (%) against TRIAVA ([3]; 14 d after 1st treatment, 9.8 mg active substance/plant, 70 WG): 28.4%; Abbott efficacy (%) against TRIAVA ([3]; 21 d after 1st treatment, 9.8 mg active substance/plant, 70 WG): 55.3%; Abbott efficacy (%) against TRIAVA ([3]; 28 d after 1st treatment, 9.8 mg active substance/plant, 70 WG): 89.1%; Abbott efficacy (%) against TRIAVA ([3]; 36 d after 1st treatment, 9.8 mg active substance/plant, 70 WG): 92.0%; Abbott efficacy (%) against TRIAVA ([3]; 43 d after 1st treatment, 9.8 mg active substance/plant, 70 WG): 89.8%; Henderson-Tilton efficacy (%) against Coccus viridis (Coccus viridis; 7 d after treatment, 12 mg active substance/1 potting compost): 45%; Henderson-Tilton efficacy (%) against Coccus viridis (Coccus viridis; 15 d after treatment, 12 mg active substance/1 potting compost): 55%; Henderson-Tilton efficacy (%) against Coccus viridis (Coccus viridis; 21 d after treatment, 12 mg active substance/1 potting compost): 66%; Henderson-Tilton efficacy (%) against Coccus viridis (Coccus viridis; 35 d after treatment, 12 mg active substance/1 potting compost): 100%; Efficacy (% Abbott) against Bemisia sp. (Bemisia sp.; 7 d after 3rd treatm., 10.5 mg/plant): 96.6 % Abbott; Efficacy (% Abbott) against Bemisia sp. (Bemisia sp.; 14 d after 3rd treatm., 10.5 mg/plant): 80.6 % Abbott; Efficacy (% Abbott) against Bemisia sp. (Bemisia sp.; 21 d after 3rd treatm., 10.5 mg/plant): 84.6 % Abbott; Efficacy (% Abbott) against Bemisia sp. (Bemisia sp.; 28 d after 3rd treatm., 10.5 mg/plant): 85.7 % Abbott"
CCOC(=O)OC1=C(c2cc(C)ccc2C)C(=O)N[C@]12CC[C@@H](OC)CC2 [Example I-4],100,84,100,100,64.1,66.3,80.0,99,100,98,100,100,57.5,85.9,88.5,85.7,84,89,99,98,"Abbott efficacy (%) against TRIAVA ([3]; 14 d after 1st treatment, 20 mg active substance/plant, 100 OD): 26.8%; Abbott efficacy (%) against TRIAVA ([3]; 21 d after 1st treatment, 20 mg active substance/plant, 100 OD): 66.3%; Abbott efficacy (%) against TRIAVA ([3]; 28 d after 1st treatment, 20 mg active substance/plant, 100 OD): 90.4%; Abbott efficacy (%) against TRIAVA ([3]; 36 d after 1st treatment, 20 mg active substance/plant, 100 OD): 95.6%; Abbott efficacy (%) against TRIAVA ([3]; 43 d after 1st treatment, 20 mg active substance/plant, 100 OD): 97.9%; Henderson-Tilton efficacy (%) against Coccus viridis (Coccus viridis; 7 d after treatment, 24 mg active substance/1 potting compost): 35%; Henderson-Tilton efficacy (%) against Coccus viridis (Coccus viridis; 15 d after treatment, 24 mg active substance/1 potting compost): 45%; Henderson-Tilton efficacy (%) against Coccus viridis (Coccus viridis; 21 d after treatment, 24 mg active substance/1 potting compost): 69%; Henderson-Tilton efficacy (%) against Coccus viridis (Coccus viridis; 35 d after treatment, 24 mg active substance/1 potting compost): 100%; Efficacy (% Abbott) against Bemisia sp. (Bemisia sp.; 7 d after 3rd treatm., 40 + 5 + 5 mg/plant, 240 SC): 86.2 % Abbott; Efficacy (% Abbott) against Bemisia sp. (Bemisia sp.; 14 d after 3rd treatm., 40 + 5 + 5 mg/plant, 240 SC): 94.4 % Abbott; Efficacy (% Abbott) against Bemisia sp. (Bemisia sp.; 21 d after 3rd treatm., 40 + 5 + 5 mg/plant, 240 SC): 94.9 % Abbott; Efficacy (% Abbott) against Bemisia sp. (Bemisia sp.; 28 d after 3rd treatm., 40 + 5 + 5 mg/plant, 240 SC): 90.5 % Abbott"
